The values that follow come from a melting point compilation (Tetko et al.; mined from patent text by program, amines drawn as free bases though some values may be those of a salt).

The melting point is the temperature, or range, at which the solid turns liquid. `CCN(C(=O)OC(C)(C)C)C1CC=C(c2c[nH]c3ccc([N+](=O)[O-])cc23)CC1` (stereo unspecified) registered a melting point of 217 to 219 °C.

`CC(C)(C)c1ccc(OCCCCCN2CCN(c3nccs3)CC2)cc1` had a melting point of 71 to 73 °C.

Take `Cc1cc(CCCCCOc2ccc(-c3nccs3)cc2)on1`: the melting point was 78 to 80 °C.

`OCc1nc2cc(CN3CCN(C(c4ccccc4)c4ccccc4)CC3)ccc2[nH]1` showed a melting point of 137 °C.

In turn, `CS(=O)(=O)Nc1ccc(S(=O)(=O)N2CCNc3nc4ccccc4n3CC2)cc1` yielded a melting point of 192 to 200 °C.

Molecule `O=C1NC(=O)c2c1c(-c1ccccc1Cl)cc1oc3ccc(O)cc3c21` came in with a melting point of 140 to 145 °C.

Take `O=C(O)c1cn(-c2ccc(F)cc2F)c2cc(-c3ccncc3)ccc2c1=O`: the melting point lay in the range of 291 to 292 °C.

For the molecule `O=C1O[C@@H](CNC(=O)C(F)(F)F)CN1c1ccc2c(c1)CCCc1cnoc1-2`, the melting point fell in the range of 203 to 205 °C.

For `CCCCNS(=O)(=O)c1ccc2nc3scc(C)n3c(=O)c2c1`, the melting point is 165 to 167 °C.

The molecule `O=C(Nc1cccc(Cl)c1)Nc1ccc(Br)cc1-c1nnn[nH]1` registered a melting point of 258 to 263 °C.

Consider `Cc1c(C#N)c(NC(=O)c2ccccc2)n(C(C)c2ccccc2)c1C` (stereo unspecified), for which the melting point lay within 218 to 221 °C.

As to `N#Cc1ccccc1-c1ccc2[nH]c(CCl)nc2c1`, the melting point was 150 to 158 °C.

The molecule `CC[Si](CC)(CC)c1ccccc1S(N)(=O)=O` returned a melting point of 85.6 °C.

`CCOC(=O)c1cn(CC)c2cc(C(=O)C=C(C)N(C)C)ccc2c1=O` displayed a melting point of 178 to 180 °C.

As to `CC(C)C[C@H](N)C(=O)N1CCN(C(c2ccc(F)cc2)c2ccc(F)cc2)CC1`, the melting point lay within 61 to 68 °C.

`OC1CCCCC1n1cnc2cc(Cl)c(Cl)cc21` (stereo unspecified) came in with a melting point of 236 to 238 °C.

Regarding `CC(=O)NCCC1CCc2ccc3nc(CCCc4ccccc4)oc3c21` (stereo unspecified), the melting point was in the range of 95 to 97 °C.

Consider `O=S1(=O)CCN2CCCC(c3ccc(Oc4ccc(C(F)(F)F)cc4)cc3)C2=N1` (stereo unspecified), for which the melting point lay in the range of 191 to 193 °C.

Take `COc1cc(C2c3cc4c(cc3C(NC3=C(C)C(=O)N(C)C3=O)C3COC(=O)C23)OCO4)cc(OC)c1O` (stereo unspecified): the melting point lay within 172 to 176 °C.

Regarding `CCOC(=O)C(=CO)CCN1CCC(C2(c3ccc(F)cc3)OCCO2)CC1`, the melting point amounted to 117 °C.

The molecule `CN(C(=O)Nc1ccsc1)c1cccc2cc(-c3nccs3)[nH]c12` gave a melting point of 266 °C.

In turn, `CC=C1CCC2C3CCC4CC(O)C(OCC)CC4(C)C3C(=NO)CC12C` (stereo unspecified) gave a melting point of 176 to 193 °C.

`COc1ccc(NN=C(Sc2ccc(C(C)(C)C)cc2)C(C)=O)cc1`: the melting point fell in the range of 111 to 113 °C.

The molecule `Cc1nc(NCCSCc2csc(CN(C)C)n2)[nH]c(=O)c1Cc1cccnc1` returned a melting point of 130 to 131 °C.

`Cc1nc(-c2ccc(F)cc2)c(-c2ccc(S(C)(=O)=O)cc2)s1` showed a melting point of 229 to 233 °C.

In turn, `O=C1NCC(CO)C1(c1ccccc1)c1ccccc1` (stereo unspecified) displayed a melting point of 145 to 148 °C.

Regarding `CCOC(=O)C1=C(C(=O)OCC)N(c2ccccc2)C(c2ccccc2)N(c2ccccc2)C1` (stereo unspecified), the melting point is 120 °C.

Consider `CC(=NO)C(C)(C)NOCCNC(C)(C)C(CCN1C(=O)c2ccccc2C1=O)=NO`, for which the melting point was 74 to 75 °C.

Consider `COc1cc2c(Nc3ccc4cn[nH]c4c3)c(C#N)cnc2cc1OCCN1CCOCC1`, for which the melting point lay within 133 to 135 °C.

`COC(=O)C1=C(C)NC(N)=C(C(=O)OC(C)C)C1c1ccccc1[N+](=O)[O-]` (stereo unspecified) displayed a melting point of 203 °C.

`COc1ccccc1CN[C@H]1CCCN(CCCCCCCc2ccccc2)[C@H]1c1ccccc1` (relative stereo) displayed a melting point of 67 to 77 °C.

With `Cc1ccc2cccc(OCc3c(Cl)ccc(C=O)c3Cl)c2n1`, the melting point was 184 to 186 °C.

On to `C[C@@H](Nc1nc(Nc2cccc(NS(C)(=O)=O)c2)nc2[nH]ccc12)C(C)(C)C`, for which the melting point was 125 to 128 °C.

In turn, `COc1cc(-c2ncc(C(F)(F)F)cc2OC)ccc1Cl` came in with a melting point of 62 to 63 °C.

Take `O=C(O)Cc1ccc(OCc2ccccc2)c(OCCc2ccccc2)c1`: the melting point lay within 110 to 112 °C.

In the case of `CSc1c(C(Cc2ccccc2)C(=O)O)cc(C)c2c1[nH]c1ccccc12` (stereo unspecified), the melting point lay in the range of 186 to 187 °C.

Take `O=C(c1cc(O)ccc1Nc1ccncc1)N1CCCCC1`: the melting point was in the range of 242 to 243 °C.

As to `Cc1ccc(-c2ccc(-c3nnn(CCCCCCc4cccnc4)n3)cc2)cc1C`, the melting point lay in the range of 63 to 64 °C.

The molecule `COC(=O)CC/C(C)=C/Cc1c(NC(=O)C(F)(F)F)c2c(c(C)c1OC)COC2=O` showed a melting point of 107 to 109 °C.

`Cc1cc(Nc2nccc(-c3sc(-c4cccnc4)nc3C)n2)ccc1N1CCCCC1` yielded a melting point of 200 to 201 °C.

Molecule `CCCCCCCCCCCCc1ccc(CCC(N)(CO)CCO)cc1` (stereo unspecified) yielded a melting point of 75 to 77 °C.

With `Cc1nc(-n2ccc(N3CCNC3=O)cc2=O)sc1C(=O)NCc1ccccc1`, the melting point was > 300 °C.

`COc1ccccc1N1CCN(CCCOc2ccc(-c3cn4ccccc4n3)cc2)CC1` gave a melting point of 149 to 150 °C.

Consider `NC(=O)c1ccccc1Sc1ccccc1[N+](=O)[O-]`, for which the melting point was 166 to 167 °C.

Consider `Cc1cccc(-c2[nH]c(C(C)C)nc2-c2cccc(-c3ccc([N+](=O)[O-])cc3)c2)n1`, for which the melting point lay within 95 to 105 °C.

As for `COc1cc(OC)cc(C(=O)N[C@H]2CCN(C)C[C@H]2c2ccccc2)c1` (relative stereo), the melting point was 123 to 124 °C.

`Nc1cnc(-c2ccc(Br)cc2)c(Cl)n1` showed a melting point of 254 to 256 °C.

`Cc1c(Cl)sc2c1c(-c1ccccc1)nc(=O)n2C` registered a melting point of 190 to 192 °C.

Turning to `CC(C)(C)OC(=O)N(Cc1ccc(C2CCCCC2)cc1)c1nc(N2CCOCC2)c2ncn(CC(=O)O)c2n1`, the melting point fell in the range of 166 to 167 °C.

Regarding `COc1ccc2c(c1)Cc1cc(C(C)C(=O)O)ccc1-2` (stereo unspecified), the melting point is 179 to 181 °C.

`COCC1OC(n2cnc3c(NCc4cccc(I)c4)nc(Cl)nc32)C(O)C1O` (stereo unspecified) registered a melting point of 84 to 86 °C.

For `Cc1nc(Nc2ccc(Cl)cc2)sc1-c1nc2ccccc2c(=O)n1-c1ccccc1Cl`, the melting point lay in the range of 237 to 238 °C.

Molecule `Cc1nc2cc3c(cc2c(=O)[nH]1)C(N(C)c1ccc(C(=O)NC(CCc2nnn[nH]2)C(=O)O)c(F)c1)CC3` (mixture of isomers) came in with a melting point of 203 to 205 °C.

The molecule `Cc1cccc2ncc(C(=O)NC3CCCCC3)c(=O)n12` had a melting point of 174 to 176 °C.

Take `O=c1[nH]cnc2c(Br)scc12`: the melting point lay in the range of 226 to 229 °C.

For `Cc1c(C(=O)Nc2ccc(OCC(C)(C)C)c(C#N)c2)cnn1C1CCCCC1`, the melting point was in the range of 126 to 128 °C.

The molecule `Cc1nc(N)c(Br)c(NNCc2cncc(Br)c2)n1` registered a melting point of 221 to 222 °C.

The molecule `O=C1c2ccccc2C2(c3ccccc3)NCCCCN12` (stereo unspecified) registered a melting point of 180 to 181 °C.

With `O=c1[nH]c2scc(-c3ccccc3)c2[nH]c1=O`, the melting point is > 300 °C.

On to `Cn1c(C(=O)N(Cc2cc(C(F)(F)F)cc(C(F)(F)F)c2)Cc2cc(C(F)(F)F)cc(C(F)(F)F)c2)c(-c2ccc(F)cc2)c2cccnc2c1=O`, for which the melting point lay in the range of 252 to 254 °C.

Consider `CC(C)OC1=CC=CN2C1=NC(=O)C2(Cc1ccccc1)Cc1ccccc1`, for which the melting point fell in the range of 247 to 248 °C.

The molecule `CCN(CC)CCNc1ccc(-c2ccnc(Nc3cc(OC)c(OC)c(OC)c3)n2)cn1` had a melting point of 67 °C.

The molecule `CC(=NOc1ccc(F)cc1)c1ccc(C(F)(F)F)cc1NS(=O)(=O)C(F)(F)F` had a melting point of 95 to 96 °C.

Take `N#Cc1ccc(C=O)c(N2CCCC2)c1`: the melting point came to 121 °C.

Molecule `CCOc1ccc2[nH]c(C)cc2c1O` yielded a melting point of 77 to 78 °C.

`O=C(CCCl)c1ccc2c3c1CCCC3C(=O)N2` (stereo unspecified) came in with a melting point of 175 to 178 °C.

Turning to `N#Cc1ccccc1-c1ccc2[nH]ncc2c1`, the melting point lay in the range of 163 to 170 °C.

The molecule `Cc1cc(-c2nc3cccnn3c2-c2ccnc(NC(=O)c3cccnc3C)c2)ccc1F` came in with a melting point of 258 to 259 °C.

As to `CC(C)(C)NC(=O)c1cc(Br)c(Br)s1`, the melting point turned out to be 190 °C.

Take `COc1cc(O)ccc1-c1nc(C)c(-c2cccnc2)[nH]1`: the melting point lay within 237 to 240 °C.

`CC(=O)Nc1cccc2c1C(=O)c1c-2n[nH]c1-c1ccc(N2CCCCC2)cc1` came in with a melting point of 291 °C.

In turn, `CCNC(=O)c1cc(Cl)ccc1Br` registered a melting point of 98 to 99 °C.

Consider `Cc1ccc(S(=O)(=O)n2c(C3(O)C=CC(=O)c4ccccc43)cc3ccccc32)cc1` (stereo unspecified), for which the melting point was in the range of 110 to 112 °C.

`CCOCc1nc2c(N)nc3ccccc3c2n1CC1CCN(C)C(=O)O1` (stereo unspecified) came in with a melting point of 192 to 194 °C.

In the case of `O=C(Nc1ccccc1C(=O)O)C(=Cc1ccccc1)C(=O)Nc1ccccc1C(=O)O`, the melting point lay in the range of 247 to 249 °C.

In turn, `CCOC(=O)CCc1nc(-c2cccc(OC)c2)nc2ccccc12` yielded a melting point of 70 °C.

Molecule `COP(=O)(c1ccccc1)c1ccc2c(c1)C(NC(=NC#N)Nc1ccc(Cl)cc1)C(O)C(C)(C)O2` (stereo unspecified) returned a melting point of 150 °C.

On to `N#Cc1cccc(C2=Nc3ccc(C#Cc4ccc(F)cc4)cc3NC(=O)C2)c1`, for which the melting point was in the range of 245 to 246 °C.

In turn, `CCOC(=O)c1c(CN(CC)CC)nc2sc3c(c2c1-c1ccc(OC)c(OC)c1)CCN(C(=O)OCC)C3` gave a melting point of 119 to 120 °C.

As for `COc1c(Cc2ccccc2)cc(S(N)(=O)=O)c2ccccc12`, the melting point was in the range of 159 to 161 °C.

For the molecule `COc1cc(-c2cccc3ccccc23)nc(N)n1`, the melting point amounted to 160 °C.

On to `Cn1cncc1C(O)(c1cccc(I)c1)c1ccc2c(c1)c(-c1cccc(Cl)c1)cc(=O)n2C` (stereo unspecified), for which the melting point amounted to 226 °C.

`Fc1ccc(COc2cccnc2NC(=S)Nc2ccc(Cl)cc2)c(F)c1` registered a melting point of 154 to 156 °C.

Take `CN1CC[C@H](c2ccc(Cl)cc2)[C@@H](O)C1` (racemic): the melting point was in the range of 99 to 100 °C.

With `[N-]=[N+]=NCCCCCCC(N)=O`, the melting point was 62 °C.

Consider `Cc1nc2c(S(N)(=O)=O)cccc2s1`, for which the melting point was 236 to 239 °C.
